Experimental data: patent publication US9073821B2, “Hydroxamic acid derivative” (priority 2010, dated 2015)

Each compound was assayed against Pseudomonas aeruginosa LpxC enzyme (Pseudomonas aeruginosa (strain ATCC 15692 / DSM 22644 / CIP 104116 / JCM 14847 / LMG 12228 / 1C / PRS 101 / PAO1), UniProt P47205) (assay: biochemical). Settings: inhibitory activity on Pseudomonas aeruginosa LpxC enzyme, class symbols A/B/C; read-out: Enzyme inhibitory activity.
Assay type: biochemical

With `O=C(NC(C(=O)NO)C(=O)NCc1ccccc1)c1ccc(-c2ccc(OCCO)cc2)cc1` (centres unmarked) [Compound 120, N-benzyl-N′-hydroxy-2-({[4′-(2-hydroxyethoxy)biphenyl-4-yl]carbonyl}amino)propanediamide] as the compound, how does the IC50 read?
The IC50 was less than 0.01 µM.

How did the IC50 turn out when `CNC(=O)C(C(=O)NO)N(C)C(=O)c1ccc(-c2ccc3c(c2)OC(C)(C)O3)cc1` (centres unmarked) [Compound 269, 2-{[4-(2,2-dimethyl-1,3-benzodioxol-5-yl)benzoyl](methyl)amino}-N-hydroxy-N′-methylpropanediamide] was run?
Its IC50 is less than 0.01 µM.

`CCCCOc1ccc(C(=O)N(C)C(C(=O)NC)C(=O)NO)cc1` (centres unmarked) [Compound 35, 2-[(4-butoxybenzoyl)(methyl)amino]-N-hydroxy-N′-methylpropanediamide] was tested. Which IC50 did it give?
Its IC50 is 0.01 to 0.1 µM.

`CNC(=O)[C@@](C)(C(=O)NO)N(C)C(=O)c1ccc(-c2ccc(OCCN3CCOCC3)cc2)cc1` [Compound 437, (2S)-N-hydroxy-N′,2-dimethyl-2-[methyl({4′-[2-(morpholin-4-yl)ethoxy]biphenyl-4-yl}carbonyl)amino]propanediamide] was tested. Which IC50 did it give?
Its IC50 is less than 0.01 µM.

With `O=C(NC(C(=O)NO)C(=O)NCc1ccncc1)c1ccc(-c2ccc(OCCO)cc2)cc1` (centres unmarked) [Compound 124, N-hydroxy-2-({[4′-(2-hydroxyethoxy)biphenyl-4-yl]carbonyl}amino)-N′-(pyridin-4-ylmethyl)propanediamide] as the compound, how does the IC50 read?
The IC50 was less than 0.01 µM.

`CNC(=O)C(C(=O)NO)N(C)C(=O)c1ccc(C#Cc2ccc3c(c2)CN(C2CC2)C3)cc1` (centres unmarked) [Compound 385, 2-[({4-[(2-cyclopropyl-2,3-dihydro-1H-isoindol-5-yl)ethynyl]phenyl}carbonyl)(methyl)amino]-N-hydroxy-N′-methylpropanediamide] was tested. Which IC50 did it give?
The IC50 was less than 0.01 µM.

With `O=C1COc2ccc(CNC(=O)C(NC(=O)c3ccc(-c4ccc(OCCO)cc4)cc3)C(=O)NO)nc2N1` (centres unmarked) [Compound 152, N-hydroxy-2-({[4′-(2-hydroxyethoxy)biphenyl-4-yl]carbonyl}amino)-N′-[(3-oxo-3,4-dihydro-2H-pyrido[3,2-b][1,4]oxazin-6-yl)methyl]propanediamide] as the compound, how does the IC50 read?
Its IC50 is less than 0.01 µM.

How did the IC50 turn out when `CNC(=O)C(C(=O)NO)N(C)C(=O)c1ccc(C#Cc2cccc(CNC3CC3)c2)cc1` (centres unmarked) [Compound 379, 2-[{[4-({3-[(cyclopropylamino)methyl]phenyl}ethynyl)phenyl]carbonyl}(methyl)amino]-N-hydroxy-N′-methylpropanediamide] was run?
The IC50 was 0.01 to 0.1 µM.

Which IC50 does the source give for `CNC(=O)C(C(=O)NO)N(C)C(=O)c1ccc(C2CCCCC2)cc1` (centres unmarked) [Compound 30, 2-[(4-cyclohexylbenzoyl)(methyl)amino]-N-hydroxy-N′-methylpropanediamide] here?
Its IC50 is 0.01 to 0.1 µM.

`CNC(=O)C(C(=O)NO)N(C)C(=O)c1ccc(C#Cc2ccc(CCN3CCCOCC3)cc2)cc1` (centres unmarked) [Compound 207, N-hydroxy-N′-methyl-2-{methyl[4-({4-[2-(1,4-oxazepan-4-yl)ethyl]phenyl}ethynyl)benzoyl]amino}propanediamide] was tested. Which IC50 did it give?
Its IC50 is less than 0.01 µM.

How did the IC50 turn out when `CNC(=O)C(C(=O)NO)N(C)C(=O)c1ccc(CCc2ccc(NCCO)cc2)cc1` (centres unmarked) [Compound 176, N-hydroxy-2-{[4-(2-{4-[(2-hydroxyethyl)amino]phenyl}ethyl)benzoyl](methyl)amino}-N′-methylpropanediamide] was run?
The IC50 was less than 0.01 µM.

With `CN(C(=O)c1ccc(-c2ccccc2)cc1)C(C(=O)NO)C(=O)NCc1ccccc1` (centres unmarked) [Compound 62, N-benzyl-2-[(biphenyl-4-ylcarbonyl)(methyl)amino]-N′-hydroxypropanediamide] as the compound, how does the IC50 read?
Its IC50 is greater than 0.1 µM.

For `CNC(=O)C(C(=O)NO)N(C)C(=O)c1ccc(C#Cc2ccc(CNC3CCC3)cc2)cc1` (centres unmarked) [Compound 316, 2-[{[4-({4-[(cyclobutylamino)methyl]phenyl}ethynyl)phenyl]carbonyl}(methyl)amino]-N-hydroxy-N′-methylpropanediamide], which IC50 is on record?
The IC50 was 0.01 to 0.1 µM.

With `CNC(=O)C(C(=O)NO)N(C)C(=O)c1ccc(-c2ncccn2)cc1` (centres unmarked) [Compound 311, N-hydroxy-N′-methyl-2-(methyl {[4-(pyrimidin-2-yl)phenyl]carbonyl}amino)propanediamide] as the compound, how does the IC50 read?
The IC50 was greater than 0.1 µM.
